Assay [1] concerns the target human V1a receptor (Homo sapiens (Human), UniProt P37288). Description: Cellular in vitro assay for determining vasopressin receptor activity (V1a, aequorin luminescence). It counts as cell-based. The note with it: for IC50: CHO cell line transfected with human V1a receptor, [Arg8]-vasopressin at EC50 concentration, read-out: IC50 hV1a; for ratio IC50 hV2/hV1a: selectivity, IC50 hV2 divided by IC50 hV1a. Here is the method:
(§1) B-1. Cellular In Vitro Assay for Determining Vasopressin Receptor Activity
(§2) The identification of agonists and antagonists of the V1a and V2 vasopressin receptors from humans, rats and dogs as well as the quantification of the activity of the compounds of the invention is carried out using recombinant cell lines. These cell lines originally derive from a hamster's ovary epithelial cell (Chinese Hamster Ovary, CHO K1, ATCC: American Type Culture Collection, Manassas, Va. 20108, USA). The test cell lines constitutively express the human, rat or dog V1a or V2 receptors. In case of the Gαq-coupled V1a receptors, cells are also stably transfected with a modified form of the calcium-sensitive photoproteins aequorin (human and rat V1a) or obe-lin (dog V1a), which, after reconstitution with the cofactor coelenterazine, emit light when there are increases in free calcium concentrations [Rizzuto R, Simpson A W, Brini M, Pozzan T, Nature 358, 325-327 (1992); Illarionov B A, Bondar V S, Illarionova V A, Vysotski E S, Gene 153 (2), 273-274 (1995)]. The resulting vasopressin receptor cells react to stimulation of the recombinantly expressed Via receptors by intracellular release of calcium ions, which can be quantified by the resulting photoprotein luminescence. The Gs-coupled V2 receptors are stably transfected into cell lines expressing the gene for firefly luciferase under control of a CRE-responsible promoter. Activation of V2 receptors induces the activation of the CRE-responsive promoter via cAMP increase, thereby inducing the expression of firefly luciferase. The light emitted by photoproteins of V1a cell lines as well as the light emitted by firefly luciferase of V2 cell lines corresponds to the activation or inhibition of the respective vasopressin receptor. The bioluminescence of the cell lines is detected using a suitable luminometer [Milligan G, Marshall F, Rees S, Trends in Pharmacological Sciences 17, 235-237 (1996)].
Vasopressin V1a Receptor Cell Lines:
On the day before the assay, the cells are plated out in culture medium (DMEM/F12, 2% FCS, 2 mM glutamine, 10 mM HEPES, 5 μg/ml coelenterazine) in 384-well microtiter plates and kept in a cell incubator (96% humidity, 5% v/v CO2, 37° C.). On the day of the assay, test compounds in various concentrations are placed for 10 minutes in the wells of the microtiter plate before the agonist [Arg^8]-vasopressin at EC50 concentration is added. The resulting light signal is measured immediately in a luminometer.
(§3) Table 1A below lists individual IC50 values for the compounds of the invention (including racemic mixtures as well as separated enantiomers) that were obtained from cell lines transfected with the human Via or V2 receptor: […]

The target in assay [2] is human V2 receptor (Homo sapiens (Human), UniProt P30518). Description: Cellular in vitro assay for determining vasopressin receptor activity (V2, CRE-luciferase). The format is cell-based. The note with it: CHO cell line transfected with human V2 receptor; [Arg8]-vasopressin at EC50 concentration; read-out: IC50 hV2. Here is the method: as §1, §2
Sequence of human V2 receptor (P30518 whole entry): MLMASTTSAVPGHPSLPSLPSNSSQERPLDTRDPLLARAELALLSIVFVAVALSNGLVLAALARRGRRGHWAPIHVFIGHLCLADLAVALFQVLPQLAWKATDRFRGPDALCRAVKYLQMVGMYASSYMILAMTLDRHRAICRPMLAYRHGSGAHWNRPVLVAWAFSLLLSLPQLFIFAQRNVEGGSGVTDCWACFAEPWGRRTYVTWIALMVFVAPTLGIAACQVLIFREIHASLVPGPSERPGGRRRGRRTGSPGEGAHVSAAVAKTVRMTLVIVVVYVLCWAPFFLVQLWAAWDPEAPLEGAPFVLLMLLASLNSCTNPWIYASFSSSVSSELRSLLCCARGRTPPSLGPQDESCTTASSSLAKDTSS
Vasopressin V2 Receptor Cell Lines:
On the day before the assay, the cells are plated out in culture medium (DMEM/F12, 2% FCS, 2 mM glutamine, 10 mM HEPES) in 384-well microtiter plates and kept in a cell incubator (96% humidity, 5% v/v CO2, 37° C.). On the day of the assay, test compounds in various concentrations and the agonist [Arg^8]-vasopressin at EC50 concentration are added together to the wells, and plates are incubated for 3 hours in a cell incubator. Upon addition of the cell lysis reagent Triton™ and the substrate luciferin, luminescence of firefly luciferase is measured in a luminometer.
as §3

SMILES strings stand for the structures.

Sequence of human V1a receptor (P37288 whole entry): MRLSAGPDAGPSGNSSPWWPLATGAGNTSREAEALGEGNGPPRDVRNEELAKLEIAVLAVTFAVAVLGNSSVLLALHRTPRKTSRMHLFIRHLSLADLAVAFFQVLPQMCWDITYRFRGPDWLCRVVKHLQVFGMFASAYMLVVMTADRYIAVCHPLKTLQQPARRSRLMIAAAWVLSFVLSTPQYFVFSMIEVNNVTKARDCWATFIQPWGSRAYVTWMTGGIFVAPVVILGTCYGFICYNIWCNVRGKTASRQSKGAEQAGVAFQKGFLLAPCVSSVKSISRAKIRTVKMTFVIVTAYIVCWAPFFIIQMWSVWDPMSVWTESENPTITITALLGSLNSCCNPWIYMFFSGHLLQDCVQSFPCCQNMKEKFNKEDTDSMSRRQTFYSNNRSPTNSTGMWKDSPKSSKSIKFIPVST

As to `O=C(CC(F)=C(F)F)NC(Cn1c(-c2ccc(Cl)cc2)nn(Cc2ncn(-c3ncccc3Cl)n2)c1=O)C(F)(F)F` (racemic) [Example 31, N-{3-[3-(4-Chlorophenyl)-1-{[1-(3-chloropyridin-2-yl)-1H-1,2,4-triazol-3-yl]methyl}-5-oxo-1,5-dihydro-4H-1,2,4-triazol-4-yl]-1,1,1-trifluoropropan-2-yl}-3,4,4-trifluorobut-3-enamide], in assay [1], the IC50 is 3.4 nM and the “ratio IC50 hV2/hV1a” value was 32.1. The IC50 in assay [2] is 109 nM.

For the compound `O=C(CF)NC(Cn1c(-c2ccc(Cl)cc2)nn(Cc2ncn(-c3ncccc3Cl)n2)c1=O)C(F)(F)F` (racemic) [Example 8], in assay [1], the IC50 was found to be 42.5 nM and the “ratio IC50 hV2/hV1a” value is given as 51.8. Also, in assay [2], the IC50 was 2200 nM.

For the compound `O=C(NC(Cn1c(-c2ccc(Cl)cc2)nn(Cc2ncn(-c3ncccc3Cl)n2)c1=O)C(F)(F)F)C1(O)CC1` (racemic) [Example 22, N-{3-[3-(4-Chlorophenyl)-1-{[1-(3-chloropyridin-2-yl)-1H-1,2,4-triazol-3-yl]methyl}-5-oxo-1,5-dihydro-4H-1,2,4-triazol-4-yl]-1,1,1-trifluoropropan-2-yl}-1-hydroxycyclopropanecarboxamide], in assay [1], the IC50 amounted to 4.05 nM and the “ratio IC50 hV2/hV1a” value stood at 37.0. The IC50 in assay [2] turned out to be 150 nM.

Consider `CS(=O)(=O)CC(=O)NC(Cn1c(-c2ccc(Cl)cc2)nn(Cc2ncn(-c3ncccc3C(F)(F)F)n2)c1=O)C(F)(F)F` (racemic) [Example 64, N-{3-[3-(4-Chlorophenyl)-5-oxo-1-({1-[3-(trifluoromethyl)pyridin-2-yl]-1H-1,2,4-triazol-3-yl}methyl)-1,5-dihydro-4H-1,2,4-triazol-4-yl]-1,1,1-trifluoropropan-2-yl}-2-(methanesulfonyl)acetamide], for which the figures for the IC50 in assay [1] and in assay [2] were 1.2 nM and 78.2 nM, respectively. The “ratio IC50 hV2/hV1a” value in assay [1] was determined as 65.2.

`N#CC1(C(=O)NC(Cn2c(-c3ccc(Cl)cc3)nn(Cc3ncn(-c4ncccc4C(F)(F)F)n3)c2=O)C(F)(F)F)CC1` (racemic) [Example 65, N-{3-[3-(4-Chlorophenyl)-5-oxo-1-({1-[3-(trifluoromethyl)pyridin-2-yl]-1H-1,2,4-triazol-3-yl}methyl)-1,5-dihydro-4H-1,2,4-triazol-4-yl]-1,1,1-trifluoropropan-2-yl}-1-cyanocyclopropane-1-carboxamide]: in assay [1], the IC50 amounted to 9.1 nM and the “ratio IC50 hV2/hV1a” value turned out to be 53.8. For the same compound, the IC50 in assay [2] stood at 490 nM.

For the compound `O=C1CC[C@@H](C(=O)NC(Cn2c(-c3ccc(Cl)cc3)nn(Cc3ncn(-c4ncccc4Cl)n3)c2=O)C(F)(F)F)N1` (single isomer, unassigned) [Example 36, N-{3-[3-(4-Chlorophenyl)-1-{[1-(3-chloropyridin-2-yl)-1H-1,2,4-triazol-3-yl]methyl}-5-oxo-1,5-dihydro-4H-1,2,4-triazol-4-yl]-1,1,1-trifluoropropan-2-yl}-5-oxo-L-prolinamide], in assay [1], the half-inhibitory concentration (IC50) amounted to 3.5 nM and the “ratio IC50 hV2/hV1a” value turned out to be 254.3. Further, the IC50 in assay [2] was 890 nM.

Regarding `O=C1CC[C@@H](C(=O)NC(Cn2c(-c3ccc(Cl)cc3)nn(Cc3ncn(-c4ncccc4Cl)n3)c2=O)C(F)(F)F)N1` (single isomer, unassigned) [Example 37, N-{3-[3-(4-Chlorophenyl)-1-{[1-(3-chloropyridin-2-yl)-1H-1,2,4-triazol-3-yl]methyl}-5-oxo-1,5-dihydro-4H-1,2,4-triazol-4-yl]-1,1,1-trifluoropropan-2-yl}-5-oxo-L-prolinamide], in assay [1], the IC50 worked out at 295 nM and the “ratio IC50 hV2/hV1a” value was 108.5. The concentration for half-maximal inhibition (IC50) in assay [2] was determined as 32000 nM.

In the case of `CC(C)(C)OC(=O)N1CCC(C(=O)NC(Cn2c(-c3ccc(Cl)cc3)nn(Cc3ncn(-c4ncccc4Cl)n3)c2=O)C(F)(F)F)C1` (stereo not drawn) [Example 23, tert-Butyl 3-({3-[3-(4-chlorophenyl)-1-{[1-(3-chloropyridin-2-yl)-1H-1,2,4-triazol-3-yl]methyl}-5-oxo-1,5-dihydro-4H-1,2,4-triazol-4-yl]-1,1,1-trifluoropropan-2-yl}carbamoyl)pyrrolidine-1-carboxylate], the results for the IC50 in assay [1] and in assay [2] were 1.01 nM and 72.5 nM, respectively.

As to `O=C(NC(Cn1c(-c2ccc(Cl)cc2)nn(Cc2ncn(-c3ncccc3Cl)n2)c1=O)C(F)(F)F)[C@@H]1C[C@@H](F)CN1` (mixture of isomers) [Example 49, N-{3-[3-(4-Chlorophenyl)-1-{[1-(3-chloropyridin-2-yl)-1H-1,2,4-triazol-3-yl]methyl}-5-oxo-1,5-dihydro-4H-1,2,4-triazol-4-yl]-1,1,1-trifluoropropan-2-yl}-4-fluoro-prolinamide], the IC50 in assay [1] amounted to 3.35 nM; in assay [2] it was 378 nM.

Regarding `O=C1NCCC1C(=O)NC(Cn1c(-c2ccc(Cl)cc2)nn(Cc2ncn(-c3ncccc3Cl)n2)c1=O)C(F)(F)F` (stereo not drawn) [Example 51, N-{3-[3-(4-Chlorophenyl)-1-{[1-(3-chloropyridin-2-yl)-1H-1,2,4-triazol-3-yl]methyl}-5-oxo-1,5-dihydro-4H-1,2,4-triazol-4-yl]-1,1,1-trifluoropropan-2-yl}-2-oxopyrrolidine-3-carboxamide], in assay [1], the IC50 stood at 2.9 nM and the “ratio IC50 hV2/hV1a” value was 57.6. For the same compound, in assay [2], the IC50 amounted to 167 nM.

For `O=C(NC(Cn1c(-c2ccc(Cl)cc2)nn(Cc2ncn(-c3ncccc3Cl)n2)c1=O)C(F)(F)F)C1CCCN1` (stereo not drawn) [Example 47, N-{3-[3-(4-Chlorophenyl)-1-{[1-(3-chloropyridin-2-yl)-1H-1,2,4-triazol-3-yl]methyl}-5-oxo-1,5-dihydro-4H-1,2,4-triazol-4-yl]-1,1,1-trifluoropropan-2-yl}-prolinamide], in assay [1], the IC50 is 1.85 nM and the “ratio IC50 hV2/hV1a” value is given as 27.0. The IC50 in assay [2] is 50 nM.

Turning to `O=C(NC(Cn1c(-c2ccc(Cl)cc2)nn(Cc2ncn(-c3ncccc3Cl)n2)c1=O)C(F)(F)F)C1(C(F)(F)F)CC1` (single isomer, unassigned) [Example 42, N-{3-[3-(4-Chlorophenyl)-1-{[1-(3-chloropyridin-2-yl)-1H-1,2,4-triazol-3-yl]methyl}-5-oxo-1,5-dihydro-4H-1,2,4-triazol-4-yl]-1,1,1-trifluoropropan-2-yl}-1-(trifluoromethyl)cyclopropane-carboxamide], the IC50 is 1350 nM in assay [1] and 12100 nM in assay [2].

As for `O=C(N[C@@H](Cn1c(-c2ccc(Cl)cc2)nn(Cc2ncn(-c3ncccc3Cl)n2)c1=O)C(F)(F)F)C1(C(F)(F)F)CC1` [Example 43], in assay [1], the IC50 is 1.4 nM and the “ratio IC50 hV2/hV1a” value is given as 40.9. Also, the IC50 in assay [2] stood at 57.2 nM.

As for `CC(F)(F)C(=O)NC(Cn1c(-c2ccc(Cl)cc2)nn(Cc2ncn(-c3ncccc3Cl)n2)c1=O)C(F)(F)F` (racemic) [Example 9], the values for the IC50 in assay [1] and in assay [2] were 10 nM and 660 nM, respectively. Further, the “ratio IC50 hV2/hV1a” value in assay [1] was 66.0.

`O=C(NC(Cn1c(-c2ccc(Cl)cc2)nn(Cc2ncn(-c3ncccc3C(F)(F)F)n2)c1=O)C(F)(F)F)C1CC(F)(F)C1` (racemic) [Example 63, N-{3-[3-(4-Chlorophenyl)-5-oxo-1-({1-[3-(trifluoromethyl)pyridin-2-yl]-1H-1,2,4-triazol-3-yl}methyl)-1,5-dihydro-4H-1,2,4-triazol-4-yl]-1,1,1-trifluoropropan-2-yl}-3,3-difluorocyclobutane-1-carboxamide]: in assay [1], the IC50 was determined as 0.72 nM and the “ratio IC50 hV2/hV1a” value was 82.2. Further, the IC50 in assay [2] is 58.8 nM.

Take `N#CC1(C(=O)NC(Cn2c(-c3ccc(Cl)cc3)nn(Cc3ncn(-c4ncccc4Cl)n3)c2=O)C(F)(F)F)CC1` (racemic) [Example 21]: the IC50 in assay [1] turned out to be 5.95 nM; in assay [2], 283 nM. Further, in assay [1], the “ratio IC50 hV2/hV1a” value turned out to be 47.5.

Usually IC50 stands for the midpoint of a concentration-inhibition curve.
